Experimental findings from ChEMBL document CHEMBL6114945, “Cyclic vinyl sulfones activate NRF2 to protect from oxidative stress-induced programmed necrosis” (Bioorg Med Chem Lett, 2025) are described below.

Active and inactive are the calls of the source. The calls are words filed in the database; no cut-off is given here. Where a SMILES comes first, the peptide text is derived from it. The star is where a group is joined. Cbz = O=C(OCc1ccccc1)*

Data set [1] is described as follows: Inhibition of proteasome-mediated NRF2 degradation in human HeLa cells assessed as increase in NRF2 level at 10 uM measured after 6 hrs by Western blotting analysis. It is filed as toxicity, cell-based.
Data set [2] concerns the target T1, Keap1/Nrf2 (Homo sapiens) (UniProt Q16236+Q14145). The data set can be described thus: Inhibition of KEAP1 BTB domain-NRF2 protein-protein interaction in human HeLa cells assessed as increase in NRF2 level at 50 nM measured after 6 hrs by Western blotting analysis. It is filed as cell-based.
Data set [3] deals with T1, Keap1/Nrf2 (Homo sapiens). Description: Inhibition of KEAP1 BTB domain-NRF2 protein-protein interaction in human HeLa cells assessed as upregulation of HO-1 level at 40 uM measured after 18 hrs by Western blotting analysis. It is filed as cell-based. (In general: In western blotting, separated proteins are transferred to a membrane and probed.)
Data set [4] deals with T1, Keap1/Nrf2 (Homo sapiens). The data set can be described thus: Inhibition of KEAP1 BTB domain-NRF2 protein-protein interaction in human HeLa cells assessed as upregulation of HO-1 level at 10 uM measured after 8 to 24 hrs by Western blotting analysis. The settings on record: time 8-24 hrs. Format: cell-based.
In data set [5] the target is T1, Keap1/Nrf2 (Homo sapiens). The data set can be described thus: Inhibition of KEAP1 BTB domain-NRF2 protein-protein interaction in human HeLa cells assessed as upregulation of NQO1 mRNA expression at 40 uM measured after 4 to 8 hrs by RT-PCR analysis. It is filed as cell-based. The conditions noted are these: time 4-8 hrs.
For data set [6], the system named is HeLa. Description: Cytotoxicity against human HeLa cells at 40 uM. Format: toxicity, cell-based.
The target of data set [7] is T1, Keap1/Nrf2 (Homo sapiens). Description: Inhibition of KEAP1 BTB domain-NRF2 protein-protein interaction in human NCI-H1299 cells assessed as upregulation of HO-1 expression at 1.25 to 20 uM measured after 6 hrs by Western blot analysis. It is filed as cell-based. The conditions noted are these: dose 1.25-20 µM.
Data set [8] deals with NCI-H1299. The data set can be described thus: Protection against RSL3-induced ferroptosis in human NCI-H1299 cells assessed as reduction in cell death at 5 to 10 uM preincubated for 6 hrs followed by RSL3 addition and measured after 18 hrs by morphological analysis. The settings on record: dose 5-10 µM, time 24.0 hrs. Format: functional, cell-based.
Data set [9] deals with T1, Keap1/Nrf2 (Homo sapiens). The data set can be described thus: Inhibition of KEAP1 BTB domain-NRF2 protein-protein interaction in human HeLa cells assessed as upregulation of NRF2 mRNA expression at 20 to 40 uM measured after 4 hrs by RT-PCR analysis. Format: cell-based. The conditions noted are these: dose 20-40 µM.
Data set [10] addresses T1, Keap1/Nrf2 (Homo sapiens). The data set can be described thus: Inhibition of KEAP1 BTB domain-NRF2 protein-protein interaction in human NCI-H1299 cells assessed as upregulation of GCSc expression at 1.25 to 20 uM measured after 18 hrs by Western blot analysis. Format: cell-based. The conditions noted are these: dose 1.25-20 µM.
Data set [11] addresses T1, Keap1/Nrf2 (Homo sapiens). Description: Inhibition of KEAP1 BTB domain-NRF2 protein-protein interaction in human HeLa cells assessed as upregulation of NQO1 mRNA expression at 20 uM measured after 8 hrs by RT-PCR analysis. Format: cell-based.
The subject of data set [12] is HCT-116. Description: Cytotoxicity against human HCT-116 cells at 40 uM. It is filed as toxicity, cell-based. The conditions noted are these: hct-116, 40 µM.
Data set [13] deals with Kelch-like ECH-associated protein 1 (Homo sapiens) (UniProt Q14145). Description: Binding affinity to KEAP1 in human HeLa cells assessed as appearance of high molecular weight bands of modified KEAP1 at 10 uM measured after 4 to 24 hrs by Western blotting analysis. Format: cell-based. The settings on record: time 4-24 hrs.
Chain of Kelch-like ECH-associated protein 1 (Homo sapiens) (Q14145 whole entry): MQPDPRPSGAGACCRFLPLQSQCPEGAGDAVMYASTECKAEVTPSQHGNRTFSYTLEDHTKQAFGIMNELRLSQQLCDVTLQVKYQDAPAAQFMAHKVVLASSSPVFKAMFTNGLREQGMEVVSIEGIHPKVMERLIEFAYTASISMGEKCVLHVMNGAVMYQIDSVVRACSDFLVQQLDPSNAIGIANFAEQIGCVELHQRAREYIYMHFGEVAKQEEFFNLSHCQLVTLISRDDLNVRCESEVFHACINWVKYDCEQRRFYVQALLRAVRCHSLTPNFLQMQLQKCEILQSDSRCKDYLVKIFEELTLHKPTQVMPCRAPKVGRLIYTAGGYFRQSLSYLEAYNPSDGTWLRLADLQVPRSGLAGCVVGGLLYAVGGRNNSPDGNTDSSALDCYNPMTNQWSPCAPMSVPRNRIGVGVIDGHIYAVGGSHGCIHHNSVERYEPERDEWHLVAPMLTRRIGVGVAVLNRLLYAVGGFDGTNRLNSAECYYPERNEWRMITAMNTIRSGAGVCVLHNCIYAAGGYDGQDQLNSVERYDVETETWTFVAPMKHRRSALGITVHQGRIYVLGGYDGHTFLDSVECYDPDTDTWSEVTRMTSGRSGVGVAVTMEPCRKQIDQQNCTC
The target is the same in data set [14]. Description: Binding affinity to KEAP1 in human HCT-116 cells assessed as appearance of high molecular weight bands of modified KEAP1 at 2.5 to 40 uM measured after 18 hrs by Western blotting analysis. It is filed as cell-based. The settings on record: dose 2.5-40 µM.
Data set [15] concerns NCI-H1299. The data set can be described thus: Protection against RSL3-induced ferroptosis in human NCI-H1299 cells at 5 to 10 uM preincubated for 6 hrs followed by RSL3 addition and measured after 18 hrs by crystal violet staining based assay. Format: functional, cell-based. The settings on record: dose 5-10 µM, time 24.0 hrs.
Data set [16] deals with NCI-H1299. The data set can be described thus: Protection against RSL3-induced ferroptosis in human NCI-H1299 cells at 10 uM preincubated for 6 hrs followed by RSL3 addition and measured after 18 hrs by phase contrast microscopy. Format: functional, cell-based.
Data set [17] relates to HeLa. Description: Effect on KEAP1 mRNA expression level in human HeLa cells at 20 to 40 uM measured after 4 to 8 hrs by RT-PCR analysis. It is filed as functional, cell-based. The settings on record: dose 20-40 µM, time 4-8 hrs.
In data set [18] the target is T1, Keap1/Nrf2 (Homo sapiens). Description: Inhibition of KEAP1 BTB domain-NRF2 protein-protein interaction in human NCI-H1299 cells assessed as increase in nuclear localization of NRF2 at 20 uM measured after 18 hrs by immunostaining based microscopic analysis. It is filed as cell-based.
The target of data set [19] is T1, Keap1/Nrf2 (Homo sapiens). Description: Inhibition of KEAP1 BTB domain-NRF2 protein-protein interaction in human HeLa cells assessed as upregulation of NRF2 mRNA expression at 20 to 40 uM measured after 8 hrs by RT-PCR analysis. It is filed as cell-based. The conditions noted are these: dose 20-40 µM.
Data set [20] has as its target T1, Keap1/Nrf2 (Homo sapiens). Description: Inhibition of KEAP1 BTB domain-NRF2 protein-protein interaction in human HeLa cells assessed as upregulation of NRF2 level at 5 to 40 uM measured after 18 hrs by Western blotting analysis. Format: cell-based. The conditions noted are these: dose 5-40 µM.
The target of data set [21] is T1, Keap1/Nrf2 (Homo sapiens). The data set can be described thus: Inhibition of KEAP1 BTB domain-NRF2 protein-protein interaction in human HCT-116 cells assessed as upregulation of NRF2 level at 2.5 to 40 uM measured after 18 hrs by Western blotting analysis. It is filed as cell-based. The conditions noted are these: dose 2.5-40 µM.
Data set [22] addresses T1, Keap1/Nrf2 (Homo sapiens). The data set can be described thus: Inhibition of KEAP1 BTB domain-NRF2 protein-protein interaction in human NCI-H1299 cells assessed as upregulation of SLC7A11 expression at 1.25 to 20 uM measured after 18 hrs by Western blot analysis. It is filed as cell-based. The settings on record: dose 1.25-20 µM.
Data set [23] has as its system HeLa. The data set can be described thus: Protection against erastin-induced ferroptosis in human HeLa cells assessed as reduction in cell death. It is filed as functional, cell-based.
For data set [24], the target named is T1, Keap1/Nrf2 (Homo sapiens). The data set can be described thus: Inhibition of KEAP1 BTB domain-NRF2 protein-protein interaction in human HeLa cells assessed as upregulation of NRF2 level at 10 uM measured after 8 to 24 hrs by Western blotting analysis. It is filed as cell-based. The conditions noted are these: time 8-24 hrs.
Data set [25] has as its target T1, Keap1/Nrf2 (Homo sapiens). Description: Inhibition of KEAP1 BTB domain-NRF2 protein-protein interaction in human NCI-H1299 cells assessed as upregulation of p-62 expression at 1.25 to 20 uM measured after 18 hrs by Western blot analysis. It is filed as cell-based. The conditions noted are these: dose 1.25-20 µM.
Data set [26] addresses T1, Keap1/Nrf2 (Homo sapiens). The data set can be described thus: Inhibition of KEAP1 BTB domain-NRF2 protein-protein interaction in human HeLa cells assessed as upregulation of p-62 mRNA expression at 20 to 40 uM measured after 8 hrs by RT-PCR analysis. The settings on record: dose 20-40 µM. It is filed as cell-based.
In data set [27] the target is T1, Keap1/Nrf2 (Homo sapiens). The data set can be described thus: Inhibition of KEAP1 BTB domain-NRF2 protein-protein interaction in human HeLa cells assessed as upregulation of HO-1 mRNA expression at 20 uM measured after 4 to 8 hrs by RT-PCR analysis. The conditions noted are these: time 4-8 hrs. It is filed as cell-based.
The test system of data set [28] is HCT-116. Description: Cytotoxicity against human HCT-116 cells at >20 uM. It is filed as toxicity, cell-based. The settings on record: hct-116, 20 µM.
The test system of data set [29] is A549. The data set can be described thus: Inhibition of KEAP1 mutant-NRF2 protein-protein interaction in human A549 cells assessed as upregulation of NRF2 level at 2.5 to 20 uM measured after 18 hrs by Western blotting analysis. Format: cell-based. The settings on record: dose 2.5-20 µM.
The target in data set [30] is T1, Keap1/Nrf2 (Homo sapiens). Description: Inhibition of KEAP1 BTB domain-NRF2 protein-protein interaction in human HeLa cells assessed as upregulation of NRF2 level at 2.5 uM measured after 18 hrs by Western blotting analysis. Format: cell-based.
Data set [31] has as its target T1, Keap1/Nrf2 (Homo sapiens). The data set can be described thus: Inhibition of KEAP1 BTB domain-NRF2 protein-protein interaction in human HCT-116 cells assessed as upregulation of NRF2 level at 2.5 to 20 uM measured after 18 hrs by Western blotting analysis. It is filed as cell-based. The conditions noted are these: dose 2.5-20 µM.
In data set [32] the target is T1, Keap1/Nrf2 (Homo sapiens). The data set can be described thus: Inhibition of KEAP1 BTB domain-NRF2 protein-protein interaction in human HeLa cells assessed as upregulation of HO-1 level at 5 uM measured after 18 hrs by Western blotting analysis. Format: cell-based.
Data set [33] deals with A549. The data set can be described thus: Inhibition of KEAP1 mutant-NRF2 protein-protein interaction in human A549 cells assessed as upregulation of HO-1 level at 2.5 to 20 uM measured after 18 hrs by Western blotting analysis. It is filed as cell-based. The conditions noted are these: dose 2.5-20 µM.
The target in data set [34] is T1, Keap1/Nrf2 (Homo sapiens). The data set can be described thus: Inhibition of KEAP1-NRF2 protein-protein interaction in human HeLa cells assessed as increase in NRF2 level at 50 uM measured after 6 hrs by Western blotting analysis. Format: cell-based.

T1 sequence (Q14145 whole entry, looked up, the tested form may be a part): as the sequence (Q14145 whole entry) above
T1 sequence (Q16236 whole entry, looked up, the tested form may be a part): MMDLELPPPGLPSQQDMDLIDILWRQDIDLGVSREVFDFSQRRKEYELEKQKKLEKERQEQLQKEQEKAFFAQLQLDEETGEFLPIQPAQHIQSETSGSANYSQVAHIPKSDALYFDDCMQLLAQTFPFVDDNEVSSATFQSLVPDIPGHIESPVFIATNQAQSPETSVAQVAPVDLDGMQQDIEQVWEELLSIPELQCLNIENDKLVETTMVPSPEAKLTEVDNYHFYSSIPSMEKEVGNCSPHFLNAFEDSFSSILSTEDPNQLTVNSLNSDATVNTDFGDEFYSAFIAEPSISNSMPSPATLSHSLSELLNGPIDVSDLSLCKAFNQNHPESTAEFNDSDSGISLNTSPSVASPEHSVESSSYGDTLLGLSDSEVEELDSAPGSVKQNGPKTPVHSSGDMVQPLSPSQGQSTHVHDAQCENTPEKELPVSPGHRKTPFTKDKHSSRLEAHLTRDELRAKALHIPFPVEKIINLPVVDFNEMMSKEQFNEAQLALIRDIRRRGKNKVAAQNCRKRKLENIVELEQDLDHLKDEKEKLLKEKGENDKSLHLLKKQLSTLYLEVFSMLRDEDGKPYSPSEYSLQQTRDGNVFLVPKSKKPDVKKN

On to `CC(C)C[C@@H](C=O)NC(=O)[C@H](CC(C)C)NC(=O)[C@H](CC(C)C)NC(=O)OCc1ccccc1` [MG-132] (Cbz-Leu-Leu-Leu-aldehyde), for which, in data set [1], the “inhibition (INH)” value is reported as “Active”.

In the case of `CC1(C)CC[C@]2(C(=O)O)CC[C@]3(C)[C@H](C(=O)C=C4[C@@]5(C)C=C(C#N)C(=O)C(C)(C)[C@@H]5CC[C@]43C)[C@@H]2C1`, the inhibition result in data set [2] was “Active”.

For `CC1=C2C(CCS2(=O)=O)c2c(c(O)c3ccccc3c2O)C1` (centres undefined), the inhibition result in [3] is “Active; Most Efficiently Upregulated The Ho-1 Level At 40 Um”; in data set [4], “Active; Most Efficient Effect Was Observed After 8 Hrs”; in data set [5], “Active; Highly Upregulated”; in [20] it was “Active; Stronger Activation Of Nrf2 Observed”; in data set [21] it was “Active; Stronger Activation Of Nrf2 Observed”; in data set [24], “Active; Most Efficient Effect Was Observed After 8 Hrs”. The figures for the inhibition entry in data set [26] and in [27] were “Active; Significant Upregulation Observed” and “Active; Significant Changes Observed”, respectively. The Activity entry is listed as “Non-toxic” with HeLa [6]; “Active; Almost Complete Protection Observed” with NCI-H1299 [8]; “Non-toxic” in the data set with HCT-116 [12]; “Active; Almost Complete Protection Observed” with NCI-H1299 [15]; “Active; Slightly More Profound Effect Observed At 10 Um” with NCI-H1299 [16]. Moreover, the inhibition entry in data set [7], in [10], in data set [11], in data set [18], in data set [19] and in [22] was “Active” each time. Further, the inhibition entry in data set [25] is “Active”. In addition, in [9], the inhibition entry is “inactive”. Besides, the result (in data set [13]; in data set [14]; in the data set with HeLa [23]) was Active. Also, in the data set on HeLa [17], the outcome was inactive.

With `CC1=C2C(CCS2(=O)=O)c2c(O)ccc(O)c2C1` (centres undefined), in the data set on HCT-116 [28], the Activity entry is reported as “Toxic”. Also, the inhibition entry in the data set with A549 [29] and in the data set on A549 [33] was “inactive” each time. Moreover, the inhibition entry in data set [30] and in [32] was “Active” throughout. In data set [31], the inhibition entry was “Active; Upregulated Nrf2 To A Lesser Degree”.

Take `CC(C)(C)c1cc(O)ccc1O`: the inhibition result in [34] is “Active”.
